Activity calls are given as the source filed them. The calls are words filed in the database; no cut-off is given here.

Experiment [1] has as its system RAW264.7. In words: Immunomodulatory activity in mouse RAW264.7 cells assessed as TNF alpha production at 1 to 1000 ng/ml after 18 hrs by ELISA method. The format is functional, cell-based.
Experiment [2] has as its system RAW264.7. In words: Immunomodulatory activity in mouse RAW264.7 cells assessed as increase in TNF alpha production after 18 hrs by ELISA method (reference value: 4.4 +/- 3.4 pg/ml). The format is functional.
The subject of experiment [3] is RAW264.7. In words: Immunomodulatory activity in mouse RAW264.7 cells assessed as TNF alpha production at 1 to 1000 ng/ml after 18 hrs by ELISA method (reference value: 4.4 +/- 3.4 pg/ml). The format is functional.

Regarding `CCCCCCCCO[C@H]1O[C@H]([C@@H](O)CF)[C@@H](O)[C@@H]1O[C@@H]1O[C@@H]([C@@H](O)CO)[C@H](O)[C@H]1O[C@@H]1O[C@@H]([C@@H](O)CO)[C@H](O)[C@H]1O` (stereo in doubt), the result in the experiment with RAW264.7 [1] was Active. On the same count and under the same terms, with `C[C@@H](O)[C@@H]1O[C@@H](O[C@@H]2[C@@H](O)[C@H](Oc3ccc([N+](=O)[O-])cc3)O[C@H]2[C@H](O)CO)[C@H](O)[C@H]1O` the entry was “inactive”. On the same count and under the same terms, with `CCCCCCCCO[C@@H]1O[C@@H]([C@H](O)CO)[C@H](O)[C@H]1O[C@@H]1O[C@@H]([C@H](O)CO)[C@H](O)[C@H]1O` the entry was “Active”; with `CCCCCCCCO[C@@H]1O[C@@H]([C@H](O)CO[C@@H]2O[C@@H]([C@H](O)CO)[C@H](O)[C@H]2O)[C@H](O)[C@H]1O`, “Active”; with `O=[N+]([O-])c1ccc(O[C@@H]2O[C@@H]([C@H](O)CO)[C@H](O)[C@H]2O[C@@H]2O[C@@H]([C@H](O)CO)[C@H](O)[C@H]2O[C@@H]2O[C@@H]([C@H](O)CO)[C@H](O)[C@H]2O)cc1`, “Active”. On the same count and under the same terms, the same measure for `C[C@@H](O)[C@@H]1O[C@@H](O[C@H]2[C@H](Oc3ccc([N+](=O)[O-])cc3)O[C@@H]([C@H](O)CO)[C@@H]2O)[C@H](O)[C@H]1O`: “inactive”. Take `CCCCCCCCO[C@@H]1O[C@@H]([C@H](O)CF)[C@H](O)[C@H]1O[C@@H]1O[C@@H]([C@H](O)CF)[C@H](O)[C@H]1O`: the Activity in the experiment with RAW264.7 [2] was determined as 600 pg/mL. Regarding `C[C@@H](O)[C@@H]1O[C@@H](OC[C@@H](O)[C@@H]2O[C@@H](Oc3ccc([N+](=O)[O-])cc3)[C@H](O)[C@H]2O)[C@H](O)[C@H]1O`, the outcome with RAW264.7 [1] was inactive. The same measure, in the same setting: with `CCCCCCCCO[C@@H]1O[C@@H]([C@H](O)CO)[C@H](O)[C@H]1O[C@H]1O[C@H]([C@@H](O)CO)[C@@H](O)[C@@H]1O[C@@H]1O[C@@H]([C@@H](O)CO)[C@H](O)[C@H]1O[C@@H]1O[C@@H]([C@@H](O)CO)[C@H](O)[C@H]1O` (stereo in doubt) the entry was “Active”; with `O=[N+]([O-])c1ccc(O[C@@H]2O[C@@H]([C@H](O)CO)[C@H](O)[C@H]2O[C@@H]2O[C@@H]([C@H](O)CF)[C@H](O)[C@H]2O)cc1`, “inactive”. On the same count and under the same terms, the same measure for `CCCCCCCCO[C@H]1O[C@H]([C@@H](O)CO)[C@@H](O)[C@@H]1O[C@@H]1O[C@@H]([C@@H](O)CO)[C@H](O)[C@H]1O[C@@H]1O[C@@H]([C@@H](O)CO)[C@H](O)[C@H]1O` (stereo in doubt): “Active”. `O=[N+]([O-])c1ccc(O[C@@H]2O[C@@H]([C@H](O)CF)[C@H](O)[C@H]2O[C@@H]2O[C@@H]([C@H](O)CF)[C@H](O)[C@H]2O)cc1`: the Activity with RAW264.7 [3] is more than 200 pg/mL. For the compound `CCCCCCCCO[C@@H]1O[C@@H]([C@H](O)CO)[C@H](O)[C@H]1O[C@@H]1O[C@@H]([C@H](O)CO)[C@H](O)[C@H]1O[C@H]1O[C@H]([C@H](O)CO)[C@@H](O)[C@@H]1O[C@@H]1O[C@@H]([C@@H](O)CO)[C@H](O)[C@H]1O[C@H]1O[C@H]([C@@H](O)CO)[C@@H](O)[C@@H]1O` (stereo in doubt), the outcome in the experiment on RAW264.7 [1] was Active. As to `CCCCCCCCO[C@H]1O[C@H]([C@H](C)O)[C@@H](O)[C@@H]1O[C@@H]1O[C@@H]([C@@H](O)CO)[C@H](O)[C@H]1O[C@@H]1O[C@@H]([C@@H](O)CO)[C@H](O)[C@H]1O` (stereo in doubt), in the experiment with RAW264.7 [1], the result was Active.

`C[C@@H](O)[C@@H]1O[C@@H](O[C@H](CO)[C@@H]2O[C@@H](Oc3ccc([N+](=O)[O-])cc3)[C@H](O)[C@H]2O)[C@H](O)[C@H]1O`: the outcome with RAW264.7 [1] was inactive. On the same count and under the same terms, the same measure for `O=[N+]([O-])c1ccc(O[C@@H]2O[C@@H]([C@H](O)CO)[C@H](O)[C@H]2O[C@@H]2O[C@@H]([C@H](O)CO)[C@H](O)[C@H]2O)cc1`: “Active”; for `O=[N+]([O-])c1ccc(O[C@@H]2O[C@@H]([C@H](O)CO[C@@H]3O[C@@H]([C@H](O)CF)[C@H](O)[C@H]3O)[C@H](O)[C@H]2O)cc1`: “inactive”; for `C[C@@H](O)[C@@H]1O[C@@H](O[C@H]2[C@H](O[C@H]3[C@H](Oc4ccc([N+](=O)[O-])cc4)O[C@@H]([C@H](O)CO)[C@@H]3O)O[C@@H]([C@@H](C)O)[C@@H]2O)[C@H](O)[C@H]1O`: “Active”.

For the origin of these results see ChEMBL document CHEMBL3779844, “Biocatalyzed synthesis of difuranosides and their ability to trigger production of TNF-α” (2016).
